Data from US7291627B2, “Dihydroimidazo[5.1-a]-beta-carboline derivatives, method for their preparation, and their application as a drug” (MACEF, priority 2001, dated 2007).

Test system: JA 657 chicks
Experiment: Chick sleep/sedation test (IM injection, 90 minute observation)
Assay type: in vivo
Conditions: for Sed (sedation time as % of the period) / TA (time to torpor between injection and first stage of sleep) / TS (duration of the first sleep) / Tsed (total sedation time over the period): 90 min observation; for TS (mins) Placebo diff'ce: extension of first sleep compared with test controls
Description: The dihydroimidazo[5,1-a]-β-carboline derivatives of the invention, in particular those in the form of the methyl sulfonate, (soluble), were tested in chicks, and certain compounds that were active in the chick were administered in single doses to six Beagle dogs of both sexes for a polysomnographic study of at least 4 hours duration.
JA 657 chicks from Couvoir Gauguet, 44 Le Pin, were accustomed for at least 6 days to an alternating program of light and darkness with 12 hours of daylight and 12 hours of darkness at a regulated temperature of 25±2° C. They were fed ad libitum and were placed under test compounds in a vivarium in groups of 3 individuals with a mean weight of 100±10 g on the day of the test. At that age in this species, there is no effective meningeal (hemato-encephalic) barrier. The test products were injected in 3 doses (1, 3 and 10 mg/kg) intramuscularly (IM) in solution or in an aqueous suspension (1 drop of Tween 80 per ml), each to two batches of 3 chicks which were observed over 90 minutes. For each test series (18 vivaria), there was at least one batch of negative control chicks receiving the same volume (0.2 ml IM) of water for injectable preparations.
During the 90 minute observation period, the chicks were strongly stimulated every 15 minutes by presenting a full feeding trough, and each 5 minute period was given a grade from among the following 5 states, corresponding to the state of alertness over that period:
Mobile, sitting alert, drowsy, asleep, sleep-like state. The parameters studied were the time to torpor (TA) passed between injection and the first stage of sleep, the duration of the first sleep (TS) and the total sedation time over the period (Tsed), expressed in minutes and as a % of the period (Sed).
To compare the results of tests carried out at different dates, the extension of the duration of the first sleep TS compared with the test controls was recorded.

| SMILES | Sed (sedation time as % of the period) (Dose: 1 mg/kg) [%] | TA (time to torpor between injection and first stage of sleep) (Dose: 1 mg/kg) [min] | TS (duration of the first sleep) (Dose: 1 mg/kg) [min] | Tsed (total sedation time over the period) (Dose: 1 mg/kg) [min] | TS (mins) Placebo diff'ce (Dose: 1 mg/kg) [min] | Sed (sedation time as % of the period) (Dose: 3 mg/kg) [%] | TA (time to torpor between injection and first stage of sleep) (Dose: 3 mg/kg) [min] | TS (duration of the first sleep) (Dose: 3 mg/kg) [min] | Tsed (total sedation time over the period) (Dose: 3 mg/kg) [min] | TS (mins) Placebo diff'ce (Dose: 3 mg/kg) [min] | Sed (sedation time as % of the period) (Dose: 10 mg/kg) [%] | TA (time to torpor between injection and first stage of sleep) (Dose: 10 mg/kg) [min] | TS (duration of the first sleep) (Dose: 10 mg/kg) [min] | Tsed (total sedation time over the period) (Dose: 10 mg/kg) [min] | TS (mins) Placebo diff'ce (Dose: 10 mg/kg) [min] |
| --- | --- | --- | --- | --- | --- | --- | --- | --- | --- | --- | --- | --- | --- | --- | --- |
| COc1ccc2[nH]c3c(c2c1)CCn1cncc1-3 [Example 3, 8-methoxy-5,6-dihydroimidazo[5,1-a]-β-carboline] | 73.9 | 10 | 40 | 66.51 | 36 | 78.9 | 7 | 66.5 | 71.0 | 62.5 | 86.7 | 6.5 | 77.5 | 78.0 | 73.5 |
| COc1ccc2[nH]c3c(c2c1)CCn1c(C)nc(-c2ccccc2)c1-3 [Example 4, 8-methoxy-3-methyl-1-phenyl-5,6-dihydro-imidazo[5,1-a]-β-carboline] | 58.9 | 16.5 | 38 | 53.01 | 34 | 72.8 | 14 | 22.5 | 65.5 | 18.5 | 90.6 | 8.5 | 81.5 | 81.5 | 76.5 |
| CCc1nc(C)n2c1-c1[nH]c3ccc(OC)cc3c1CC2 [Example 5, 1-ethyl-8-methoxy-3-methyl-5,6-dihydro-imidazo[5,1-a]-β-carboline] | 58.3 | 20.5 | 33 | 52.47 | 29 | 76.7 | 14.5 | 53 | 69.0 | 49 | 62.8 | 13.5 | 40.5 | 56.5 | 36.5 |
| COc1ccc2[nH]c3c(c2c1)CCn1c-3cnc1C(C)C [Example 6, 8-methoxy-3-isopropyl-5,6-dihydroimidazo-[5,1-a]-β-carboline] | 73.3 | 11 | 56.5 | 65.97 | 52.5 | 80.6 | 12.5 | 72.5 | 72.5 | 68.5 | 82.2 | 12.5 | 72.5 | 74.0 | 68.5 |
| CCCc1ncc2n1CCc1c-2[nH]c2ccc(OC)cc12 [Example 7, 8-methoxy-3-propyl-5,6-dihydroimidazo[5,1-a]-β-carboline] | 41.4 | 16.5 | 16 | 46 | 16 | 41 | 16.5 | 27 | 45.5 | 27 | 48.2 | 12.5 | 38.5 | 53.5 | 38.5 |
| CCCc1ncc2n1CCc1c-2n(C)c2ccc(OC)cc12.CS(=O)(=O)O [Example 8, 8-methoxy-11-methyl-3-propyl-5,6-dihydro-imidazo[5,1-a]-β-carboline methane sulfonate] | 42.2 | 16 | 21.5 | 38 | 21 | 60 | 8.5 | 33 | 54 | 32.7 | 76.1 | 5.5 | 41 | 68.5 | 40.7 |
| COc1ccc2c(c1)c1c(n2C)-c2cnc(C)n2CC1.CS(=O)(=O)O [Example 9, 8-methoxy-3,11-dimethyl-5,6-dihydroimidazo-[5,1-a]-β-carboline methane sulfonate] | 27.2 | 22 | 3 | 24.5 | 2.8 | 29.4 | 17.5 | 13.5 | 26.5 | 13 | 42.8 | 16.5 | 15.5 | 38.5 | 15 |
| CS(=O)(=O)O.Cc1ncc2n1CCc1c-2n(C)c2ccc(O)cc12 [Example 10, 8-hydroxy-3,11-dimethyl-5,6-dihydroimidazo-[5,1-a]-β-carboline methane sulfonate] | 42.2 | 15 | 5 | 38 | 4.7 | 12.2 | 30 | 1 | 11 | 0.7 | 30 | 11.5 | 12.5 | 27 | 12 |
